According to the NIST ThermoML archive (doi:10.1021/je2000217):

Assay: cn = amount concentration of the nth substance listed, in mol/dm3
Conditions: 100 kPa, Liquid; for viscosity: Capillary tube (Ostwald / Ubbelohde) method; for mass density: Vibrating tube method

CCCCCCCCCCCCCCCC[N+](C)(C)C.[Br-] [N,N,N-trimethyl-1-hexadecanaminium bromide] + O
Conditions | mass density, 298.15 K [kg/m3] | mass density, 308.15 K [kg/m3] | mass density, 318.15 K [kg/m3] | viscosity, 298.15 K [mPa·s] | viscosity, 308.15 K [mPa·s] | viscosity, 318.15 K [mPa·s]
c1 = 0.001 | 997.1 | 994.2 | 990.6 | 0.8978 | 0.7436 | 0.6173
c1 = 0.003 | 997.3 | 994.3 | 990.7 | 0.9087 | 0.7516 | 0.6217
c1 = 0.005 | 997.4 | 994.4 | 990.8 | 0.9213 | 0.7596 | 0.6349
